Measurements as given in ChEMBL document CHEMBL1144574, “Synthesis and identification of novel oxa-steroids as progesterone receptor antagonists” (Bioorg Med Chem Lett, 2007).

Legend:
[1] = target: T1, Progesterone receptor (Homo sapiens, UniProt P06401); assay: Antagonist activity at progesterone receptor in human T47D cells assessed as inhibition of progesterone-induced alkaline phosphatase activity; assay type: functional, cell-based
T1 sequence (P06401 whole entry): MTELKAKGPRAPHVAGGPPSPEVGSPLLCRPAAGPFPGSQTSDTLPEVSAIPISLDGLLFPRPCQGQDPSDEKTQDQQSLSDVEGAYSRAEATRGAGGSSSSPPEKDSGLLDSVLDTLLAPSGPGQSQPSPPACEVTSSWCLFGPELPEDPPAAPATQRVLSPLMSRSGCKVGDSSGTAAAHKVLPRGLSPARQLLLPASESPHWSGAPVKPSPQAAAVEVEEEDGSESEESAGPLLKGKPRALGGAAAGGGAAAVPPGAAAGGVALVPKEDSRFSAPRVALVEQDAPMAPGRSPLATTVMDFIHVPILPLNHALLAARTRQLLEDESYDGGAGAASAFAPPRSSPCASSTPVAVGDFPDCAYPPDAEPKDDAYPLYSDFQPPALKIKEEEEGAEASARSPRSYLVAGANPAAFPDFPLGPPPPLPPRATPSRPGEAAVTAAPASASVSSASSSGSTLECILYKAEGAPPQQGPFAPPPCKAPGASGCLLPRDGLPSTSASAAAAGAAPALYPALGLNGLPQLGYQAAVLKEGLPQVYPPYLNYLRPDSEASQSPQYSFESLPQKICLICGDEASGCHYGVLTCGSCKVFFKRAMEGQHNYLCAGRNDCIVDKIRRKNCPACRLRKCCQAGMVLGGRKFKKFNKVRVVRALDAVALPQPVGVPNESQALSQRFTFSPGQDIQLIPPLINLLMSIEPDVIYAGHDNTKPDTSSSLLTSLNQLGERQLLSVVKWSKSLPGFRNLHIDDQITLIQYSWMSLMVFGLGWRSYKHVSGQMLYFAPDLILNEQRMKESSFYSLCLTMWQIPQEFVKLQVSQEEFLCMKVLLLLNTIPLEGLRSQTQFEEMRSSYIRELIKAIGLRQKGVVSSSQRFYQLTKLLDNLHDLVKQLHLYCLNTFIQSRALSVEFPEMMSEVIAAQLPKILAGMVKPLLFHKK

[2] = target: T2, Glucocorticoid receptor (Homo sapiens, UniProt P04150); assay: Antagonist activity at glucocorticoid receptor in human A549 cells assessed as inhibition of corticoid-induced GRE-linked luciferase reporter gene activity; assay type: functional, cell-based
T2 sequence (P04150 whole entry): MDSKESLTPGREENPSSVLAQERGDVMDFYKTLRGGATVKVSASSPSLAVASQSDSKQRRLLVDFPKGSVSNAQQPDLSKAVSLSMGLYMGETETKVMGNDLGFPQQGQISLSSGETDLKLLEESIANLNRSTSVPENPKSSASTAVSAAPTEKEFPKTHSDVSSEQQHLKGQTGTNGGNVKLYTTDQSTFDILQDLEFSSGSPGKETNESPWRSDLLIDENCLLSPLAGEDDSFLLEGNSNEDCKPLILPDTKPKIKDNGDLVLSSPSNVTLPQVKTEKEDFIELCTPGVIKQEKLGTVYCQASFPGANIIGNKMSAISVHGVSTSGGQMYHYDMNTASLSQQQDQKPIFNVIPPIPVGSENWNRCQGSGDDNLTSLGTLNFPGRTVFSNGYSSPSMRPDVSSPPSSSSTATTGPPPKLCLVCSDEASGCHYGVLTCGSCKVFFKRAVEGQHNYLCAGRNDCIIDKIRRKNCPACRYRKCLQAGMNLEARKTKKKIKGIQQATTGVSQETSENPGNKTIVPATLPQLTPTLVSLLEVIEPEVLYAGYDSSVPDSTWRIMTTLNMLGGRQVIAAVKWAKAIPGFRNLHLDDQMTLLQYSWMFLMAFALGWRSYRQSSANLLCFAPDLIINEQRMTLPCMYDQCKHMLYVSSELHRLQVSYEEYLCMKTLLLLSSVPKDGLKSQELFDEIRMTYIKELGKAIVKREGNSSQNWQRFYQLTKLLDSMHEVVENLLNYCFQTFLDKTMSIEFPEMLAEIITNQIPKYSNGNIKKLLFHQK

[3] = organism: Homo sapiens; assay: Selectivity for human progesterone receptor over human glucocorticoid receptor

| IC50 [1] [nM] | IC50 [2] [nM] | Ratio IC50 [3] | SMILES |
| --- | --- | --- | --- |
| > 1000 | 558 |  | CN(C)c1ccc([C@H]2C[C@@]3(C)[C@@H](CC[C@@]3(O)C#CC(C)(C)O)[C@@H]3OCC4=CC(=O)CCC4=C32)cc1 |
| > 1000 | > 3000 |  | CN(C)CC#C[C@]1(O)CC[C@H]2[C@@H]3OCC4=CC(=O)CCC4=C3[C@@H](c3ccc(N(C)C)cc3)C[C@@]21C |
| 185 | 167 | 1 | CN(C)c1ccc([C@H]2C[C@@]3(C)[C@@H](CC[C@@]3(O)C#CC(C)(C)C)[C@@H]3OCC4=CC(=O)CCC4=C32)cc1 |
| 1.4 | 304 | 217 | CN(C)c1ccc([C@H]2C[C@@]3(C)[C@@H](CC[C@@]3(O)C#Cc3ccccc3)[C@@H]3OCC4=CC(=O)CCC4=C32)cc1 |
| 19 | 204 | 11 | C#C[C@]1(O)CC[C@H]2[C@@H]3OCC4=CC(=O)CCC4=C3[C@@H](c3ccc(N(C)C)cc3)C[C@@]21C |
| 7.5 | 86.5 | 12 | CC#C[C@]1(O)CC[C@H]2[C@@H]3OCC4=CC(=O)CCC4=C3[C@@H](c3ccc(N(C)C)cc3)C[C@@]21C |

| SMILES | IC50 [1] [nM] | IC50 [2] [nM] | Ratio IC50 [3] |
| --- | --- | --- | --- |
| CN(C)c1ccc([C@H]2C[C@@]3(C)[C@@H](CC[C@@]3(O)C#CC3CC3)[C@@H]3OCC4=CC(=O)CCC4=C32)cc1 | 9.6 | 33.4 | 4 |
| CN(C)c1ccc([C@H]2C[C@@]3(C)[C@@H](CC[C@@]3(O)C#CC(F)(F)F)[C@@H]3OCC4=CC(=O)CCC4=C32)cc1 | 9.3 | 55.5 | 6 |
